Reference: patent publication US20150359866A1, “TREATMENT OF CERVICAL AND RELATED […] TOPICAL IMMUNOMODULATORS” (THE JOHNS HOPKINS UNIVERSITY, priority 2014, published 2015)

Test system: CIN2/3 lesions associated with HPV genotypes other than HPV16
Assay: Clinical trial of topical imiquimod on CIN 2/3 lesions (lesion regression)
Format: in vivo, human
From the text: Treatment protocol. In an embodiment, patients are screened at their initial colposcopic evaluation for referral for evaluation of high grade pap smears. Immunocomptetent patients with biopsy-confirmed CIN2/3 which is HPV16 negative will be eligible for enrollment. Both treatment and control groups will be assessed for histologic diagnosis at week 15, change in cervical quantitative HPV viral load, safety, toxicity, tolerability, and for measures of local mucosal immune responses. Patients will be given imiquimod (5%) or vehicle at Day 0, week 4, and week 8 and then histological diagnosis is determined at week 15.
Imiquimod administration on the lesion at each vaccination. In an embodiment, patients received a total of three applications of imiquimod directly on the cervical lesion, one application at the time of each vaccination. One single use packet containing 250 mg of 5% imiquimod was used for each treatment. After insertion of a vaginal speculum, the cream is applied directly to the lesion by the PI, using a cotton-tipped applicator. The speculum is withdrawn, and a tampon is placed as a medication barrier. Patients will be instructed to leave the tampon in place for about 4 to 6, and no more than 10 hours. […]
Clinical trial results. […] Subjects were monitored for mucosal irritation. […]

Compound: CC(C)Cn1cnc2c(N)nc3ccccc3c21 [imiquimod, 1-(2-methylpropyl)-1H-imidazo[4,5-c]quinolin-4-amine]
- rate of regression relative to untreated HPV16-negative CIN2/3 patients (FIG. 4, untreated rate in same timeframe 30-40%): nearly double
- rate of regression of CIN2/3 lesions (HPV16-negative subjects, 12.5 mg imiquimod in 250 mg cream applied to the cervical lesion three times at four-week intervals, assessed eight weeks after third application, 10/16 subjects): 62.5%
